Counter-ions that a name gives are not always drawn.
Key:
Format in all cases: physicochemical
[1] = FT4 Powder Rheometer dynamic testing (flow rate index, specific energy); conditions: for Flow Rate Index: flow energy at 10 mm/s / 100 mm/s
Procedure: In certain embodiments, powder characterization described herein can be determined using the FT4 Powder Rheometer (Freeman Technology Ltd, Tewkesbury, UK) with the 25 mm vessel assembly having 23.5 mm diameter blades, vented piston, a segmented rotational shear cell accessory and a 10 or 25 ml borosilicate vessel. Powder testing can be generally divided into three categories: dynamic tests, permeability test and shear test. Dynamic testing uses the 23.5 mm diameter blades and a 25 ml powder sample in the borosiliate test vessel. Powder is filled into the vessel and the blades are simultaneously rotated and moved axially into the powder sample as the axial and rotational forces are measure and used to calculate the dynamic flowability parameters, such as flow rate index (FRI) and Specific Energy (SE). As used herein, the “flow rate index” (or FRI) is a measure of a powder's sensitivity to variable flow rate and is obtained as the ratio of the total energy required to induce powder flow at 10 mm/s and 100 mm/s blade tip speed. A larger deviation from 1 indicates greater sensitivity of a powder to variable flow rate. FRI=Flow Energy@10mm/s/Flow Energy@100mm/s As used herein, “specific energy” or SE is a measure of the powder flow in low stress environment and is derived from the shear forces acting on the blades as they rotate upward through the powder. The SE is recorded as the flow energy of the powder normalized by its weight in mJ/g during the upward spiral movement of the blades in a FT4 Powder Rheometer describe above. A lower SE is an indication of a less cohesive powder and better flow properties. DMF powder characterization was conducted using the FT4 Powder Rheometer (Freeman Technology Ltd, Tewkesbury, UK) using the 25 mm vessel assembly which consists of 23.5 mm diameter blades, vented piston, a segmented rotational shear cell accessory; and a 10 or 25 ml borosilicate vessel. All powders were pre-conditioned by the instrument's built-in conditioning step. Dynamic testing used the 23.5 mm diameter blades and a 25 ml powder sample in the borosilicate test vessel. Powder was filled into the vessel. The blades were simultaneously rotated and moved axially into the powder sample as the axial and rotational forces were measured and used to calculate the dynamic flowability parameters. Among dynamic parameters tested are Flow rate Index (FRI) and Specific Energy (SE). Their measurement techniques are described below: The FRI is a measure of a powder's sensitivity to variable flow rate and it is obtained as the ratio of the total energy required to induce powder flow at 10 mm/s and 100 mm/s blade tip speed. A larger deviation from 1 indicates greater sensitivity of a powder to variable flow rate. SE is a measure of the powder flow in low stress environment and is derived from the shear forces acting on the blades as they rotate upward through the powder. The SE is recorded as the flow energy of the powder normalized by its weight in […] during the upward spiral movement of the blades. A lower SE is an indication of a less cohesive powder and better flow properties.

[2] = FT4 Powder Rheometer shear test (flow function); conditions: for Flow Function: FT4, Table 2, FF=MPS/UYS; for Flow Function (FF): 350 kg batch, FT4, Table 3
Procedure: Shear testing measures powder shear properties which involves the stress limit required to initiate a powder flow. The shear testing uses a segmented rotational shear cell head and a 10 ml powder sample in the borosilicate test vessel. Powder is filled into the vessel. The shear cell head is simultaneously rotated and moved axially under the powder sample at pre-determined normal stresses as the shear stresses are measured to calculate several parameters, including the flow function (FF). As used herein, “flow function” or FF is a parameter commonly used to rank powder's flowability and is determined using a shear test. The data produced in the shear test represents the relationship between shear stress and normal stress, which can be plotted to define the powder's Yield Locus, which is shown in FIG. 21. Fitting Mohr stress circles to the yield locus identifies the Major Principle Stress (MPS) and Unconfined Yield Strength (UYS). Flow function is the ratio of Major Principle Stress (MPS) to the Unconfined Yield Strength (UYS): FF=MPS/UYS. Usually, powders of low cohesion have higher FF and that represents better flow properties. Shear testing measures powder shear properties which involves the stress limit required to initiate a powder flow. The shear testing used a segmented rotational shear cell head and a 10 ml powder sample in the borosilicate test vessel. Powder was filled into the vessel. The shear cell head was simultaneously rotated and moved axially unto the powder sample at pre-determined normal stresses as the shear stresses were measured to calculate several parameters that include the flow function (FF) and powder cohesion (in kPa). Usually, powders of low cohesion have higher FF and that represents better flow properties.

[3] = Particle size of dimethyl fumarate by Malvern laser diffraction; conditions: for Span: Span=(D90−D10)/D50; for Span / D × 10 (μm) / D × 50 (μm) / D × 90 (μm) / D × 97 (μm) / ≤10 μm: Table 1; for ≤10 μm: fraction of particles ≤10 μm; for d10 / d50 / d90: 350 kg batch, laser diffraction, Table 3
Procedure: As use herein, the particle size is expressed in terms of volume diameter and the particle size distribution is expressed in terms of D50, D10, D90 and span.
In certain embodiments, the particle size described herein are measured using a laser diffraction technique that correlates light scattering to particle volume on which effective length or effective diameter is calculated. The distribution is based on a measurement of thousands of particles. Particle samples can be in dry form or in slurry. In one embodiment, the instrument used to determine particle size/distribution is a Beckman Coulter LS230 or a Malvern Mastersizer.
As used herein, “D50”, also known as the median diameter, corresponds to the value under which 50% of the particles has a lower volume diameter. “D90” corresponds to the value under which 90% of the particles has a lower volume diameter. “D10” corresponds to the value under which 10% of the particles has a lower volume diameter.
As used herein, “span” is a measure for particle size distribution. It is calculated according to the following equation: Span=(D90−D10)/D50

[4] = FT4, Table 2, no unit printed in table (mJ/g)

## COC(=O)/C=C/C(=O)OC [2014-4281-A.4, dimethyl fumarate]
[1]; FT4, Table 2
  Flow Rate Index: 1.11
[1]; [4]
  Specific Energy: 4.87
[2]
  Flow Function: 5.84
[3]
  Span: 1.562
  D × 10 (μm): 31.9 μm
  D × 50 (μm): 96 μm
  D × 90 (μm): 182 μm
  D × 97 (μm): 235 μm
  ≤10 μm: 2.61%

## COC(=O)/C=C/C(=O)OC [2014-4281-A.8, dimethyl fumarate]
[1]; FT4, Table 2
  Flow Rate Index: 1.37
[1]; [4]
  Specific Energy: 6.64
[2]
  Flow Function: 3.29
[3]
  Span: 1.71
  D × 10 (μm): 27.2 μm
  D × 50 (μm): 70.8 μm
  D × 90 (μm): 148 μm
  D × 97 (μm): 208 μm
  ≤10 μm: 3.87%

## COC(=O)/C=C/C(=O)OC [2014-4281-A.9, dimethyl fumarate]
[1]; FT4, Table 2
  Flow Rate Index: 1.33
[1]; [4]
  Specific Energy: 6.42
[2]
  Flow Function: 2.50
[3]
  Span: 1.58
  D × 10 (μm): 26.8 μm
  D × 50 (μm): 88.2 μm
  D × 90 (μm): 166 μm
  D × 97 (μm): 210 μm
  ≤10 μm: 3.02%

## COC(=O)/C=C/C(=O)OC [Batch 11P1310, dimethyl fumarate]
[3]
  Span: 2.05
  D × 10 (μm): 9 μm
  D × 50 (μm): 30 μm
  D × 90 (μm): 70 μm
  D × 97 (μm): 97 μm
  ≤10 μm: 11.48%

## COC(=O)/C=C/C(=O)OC [Batch A14DS0977, dimethyl fumarate]
[3]
  Span: 1.554
  D × 10 (μm): 51.5 μm
  D × 50 (μm): 127 μm
  D × 90 (μm): 249 μm
  D × 97 (μm): 319 μm
  ≤10 μm: 1.87%

## COC(=O)/C=C/C(=O)OC [Batch A14DS0978, dimethyl fumarate]
[1]; FT4, Table 2
  Flow Rate Index: 1.68
[1]; [4]
  Specific Energy: 8.67
[2]
  Flow Function: 12.84
[3]
  Span: 1.593
  D × 10 (μm): 44.1 μm
  D × 50 (μm): 113 μm
  D × 90 (μm): 224 μm
  D × 97 (μm): 294 μm
  ≤10 μm: 2.32%

## COC(=O)/C=C/C(=O)OC [Batch A14DS1097, dimethyl fumarate]
[1]; FT4, Table 2
  Flow Rate Index: 1.54
[1]; [4]
  Specific Energy: 9.19
[2]
  Flow Function: 5.97
[3]
  Span: 1.772
  D × 10 (μm): 33.1 μm
  D × 50 (μm): 87.8 μm
  D × 90 (μm): 189 μm
  D × 97 (μm): 257 μm
  ≤10 μm: 2.89%

## COC(=O)/C=C/C(=O)OC [Batch B1417-140304, dimethyl fumarate]
[1]; FT4, Table 2
  Flow Rate Index: 1.50
[1]; [4]
  Specific Energy: 5.48
[2]
  Flow Function: 2.25

## COC(=O)/C=C/C(=O)OC [Run 1, dimethyl fumarate]
[1]; 350 kg batch, FT4, Table 3
  Flow rate Index (FRI): 1.61
  Specific Energy: 12.21 mJ/g
[2]
  Flow Function (FF): 10.3
[3]
  d10: 35 μm
  d50: 83 μm
  d90: 156 μm

## COC(=O)/C=C/C(=O)OC [Run 2, dimethyl fumarate]
[1]; 350 kg batch, FT4, Table 3
  Flow rate Index (FRI): 1.39
  Specific Energy: 12.18 mJ/g
[2]
  Flow Function (FF): 4.95
[3]
  d10: 39 μm
  d50: 83 μm
  d90: 150 μm
